One experiment deals with Bone marrow progenitors. As to the kind of experiment: Cytotoxicity, colony formation. Format: cell-based, human. The following applies: 14 days of treatment, colonies counted. Here is the method: The evaluation of the off-target effects of NV651 was performed by ImQuest BioSciences Inc. (Frederick, MD, USA) by analyzing the cytotoxicity in a panel of primary cells. NV651 was evaluated at a concentration of 30 µM and five serial half-logarithmic dilutions in triplicate. The positive control compounds for each cell type were purchased from Sigma-Aldrich (St. Louis, MO, USA) and were as follows: Unstimulated human peripheral blood mononuclear cells (PBMCs), phytohemagglutinin (PHA)-stimulated PBMCs, monocytes/macrophages, dendritic cells, hepatocytes, induced pluripotent stem cell (iPS) neurons: […] AZT, kidney cells (RPTEC): cisplatin and iPS cardiomyocytes: Doxazosin. Bone marrow progenitor cells (Invitrogen, Waltham, MA, USA) were suspended in cell culture medium (Iscove-modified Dulbecco medium) containing 15% FBS, 10% giant tumor-conditioned medium (Bone Marrow Plus, Sigma-Aldrich, St. […] Cells (1 × 10^5 cells/well) were seeded in 6-well plates containing NV651 in triplicate. Cells were incubated for 14 days, and colonies (more than 30 cells) were counted.

In a further experiment the target is CypB (Homo sapiens, UniProt P23284). As to the kind of experiment: PPIase activity assay (chymotrypsin-coupled). The experiment is classed as biochemical. Here is the method:
(§1) The PPIase activity of CypA, CypB, CypD and Cyp40 was determined by following the rate of hydrolysis of N-succinyl-Ala-Ala-Pro-Phe-p-nitroanilide by chymotrypsin, a digestive enzyme that only hydrolyzes the trans form of the peptide. Therefore, the hydrolysis of the cis form, the concentration of which is maximized by using a stock dissolved in trifluoroethanol containing 470-mM LiCl, is only possible with the isomerization from the cis to the trans form. […] The reaction was started with the peptide addition, and the change in absorbance was monitored spectrophotometrically at a 6-s interval for 6 min. The blank rates of hydrolysis (in the absence of Cyps) were subtracted from the rates in the presence of Cyps. The initial rates of the enzymatic reaction were analyzed by a first-order regression analysis of the time course of the change in absorbance.

Another experiment has as its target Cyp40 (Homo sapiens, UniProt Q08752). Briefly: PPIase activity assay (chymotrypsin-coupled). The experiment is classed as biochemical. To be noted: free-cell assay; Cyp equilibrated 1 h at 5 °C with inhibitor; read-out: absolute IC50, PPIase activity Cyp40. Here is the method:
as §1

For a further experiment, the target named is CypD (Homo sapiens, UniProt P30405). As to the kind of experiment: PPIase activity assay (chymotrypsin-coupled). The following applies: free-cell assay; Cyp equilibrated 1 h at 5 °C with inhibitor; read-out: absolute IC50, PPIase activity CypD. Format: biochemical. How it is done: as §1
The subject of another experiment is LIXC-086. As to the kind of experiment: Cell proliferation assay: Acumen. The experiment is classed as cell-based. The following applies: Homo sapiens, 168 h, 7 days, read-out: Abs IC50 growth inhibition. Here is the method:
(§2) Compound screening and comparison of the antiproliferative effect of NV651 and sorafenib were performed by Shanghai ChemPartner Co., Ltd. (Shanghai, China). Cells were seeded in a 96-well plate at the following concentrations: LIXC-003 400 cells/well, LIXC-004 1000 cells/well, LIXC-086 5000 cells/well, LIXC-066 1250 cells/well, LIXC-012 2000 cells/well, LIXC-006 1250 cells/well, HEPG2 1000 cells/well, HUH7 2000 cells/well and Hep3B2.1-7-Luc 1000 cells/well. Cells were treated with either sorafenib or NV651 at 0.004, 0.011, 0.034, 0.103, 0.309, 0.926, 2.778, 8.333, 25 µM or an equivalent volume with DMSO.
(§3) After 7 days, cells were trypsinized and collected. Fifty microliters of cell suspension were added to 50 µL of 2-µM Calcein AM (Invitrogen, Cat# C3099, Waltham, MA, USA) diluted in HBSS and placed in a black-walled 96-well plate. The plate was left for 30 min at room temperature, followed by a scan with Acumen eX3.
(§4) Growth inhibition for direct cell counting (%) by Acumen was calculated as:(1) 100−100∗Experimental count−Blank/DMSO count −Blank

A further experiment concerns LIXC-012. Briefly: Cell proliferation assay: Acumen. The experiment is classed as cell-based. To be noted: Homo sapiens, 168 h, 7 days, read-out: Abs IC50 growth inhibition. How it is done:
as §2, §3, §4

The test system of another experiment is HEPG2. Briefly: Cell proliferation assay: Acumen. The experiment is classed as cell-based. The following applies: Homo sapiens, 168 h, 7 days, read-out: Abs IC50 growth inhibition. Here is the method: as §2, §3, §4
A further experiment concerns HEP3B2.1-7-Luc. Briefly: Cell proliferation assay: Acumen. Format: cell-based. The following applies: Homo sapiens, 168 h, 7 days, read-out: Abs IC50 growth inhibition. Here is the method: as §2, §3, §4
A further experiment concerns LIXC-066. As to the kind of experiment: Cell proliferation assay: Acumen. Format: cell-based. To be noted: Homo sapiens, 168 h, 7 days, read-out: Abs IC50 growth inhibition. Here is the method:
as §2, §3, §4

A further experiment deals with LIXC-003. As to the kind of experiment: Cell proliferation assay: Acumen. Format: cell-based. The following applies: Homo sapiens, 168 h, 7 days, read-out: Abs IC50 growth inhibition. How it is done: as §2, §3, §4
Another experiment relates to LIXC-006. Briefly: Cell proliferation assay: Acumen. Format: cell-based. The following applies: Homo sapiens, 168 h, 7 days, read-out: Abs IC50 growth inhibition. Here is the method: as §2, §3, §4
The subject of a further experiment is HUH7. As to the kind of experiment: Cell proliferation assay: Acumen. The experiment is classed as cell-based. To be noted: Homo sapiens, Huh-7, 168 h, 7 days, read-out: Abs IC50 growth inhibition. Here is the method: as §2, §3, §4
Another experiment concerns LIXC-004. Briefly: Cell proliferation assay: Acumen. The experiment is classed as cell-based. The following applies: Homo sapiens, 168 h, 7 days, read-out: Abs IC50 growth inhibition. Here is the method:
as §2, §3, §4

Another experiment relates to Dendritic cells. Briefly: Cytotoxicity, CellTiter Glo. Format: cell-based. The following applies: Homo sapiens, Dendritic cell, 168 h, 7 days of treatment, read-out: IC50 (50% reduction in cell viability). Here is the method: The evaluation of the off-target effects of NV651 was performed by ImQuest BioSciences Inc. (Frederick, MD, USA) by analyzing the cytotoxicity in a panel of primary cells. NV651 was evaluated at a concentration of 30 µM and five serial half-logarithmic dilutions in triplicate. The positive control compounds for each cell type were purchased from Sigma-Aldrich (St. Louis, MO, USA) and were as follows: Unstimulated human peripheral blood mononuclear cells (PBMCs), phytohemagglutinin (PHA)-stimulated PBMCs, monocytes/macrophages, dendritic cells, hepatocytes, induced pluripotent stem cell (iPS) neurons: […] AZT, kidney cells (RPTEC): cisplatin and iPS cardiomyocytes: Doxazosin. The isolation was based on Nair, Archer. Briefly, freshly separated PBMCs from one donor were suspended in DPBS at 4 × 10^6 cells per mL and cultured in a T-75 flask. Cells were incubated for 30 min and then washed 5–7 times with DPBS to remove nonadherent cells. Cells were cultured in RPMI 1640 supplemented with 10% FBS, 2-mM L-glutamine, 25-mM HEPES, […], 100-µg/mL streptomycin, 50-ng/mL rhGM-CSF and 50-ng/mL rhIL-4 and incubated for 7 days. After the incubation period, cells were cultured in the same media with the addition of LPS (10 ng/mL) for two days. […]
In general terms: ATP-based viability assays read luminescence as a measure of living cells.

For another experiment, the system named is RPTECs. As to the kind of experiment: Cytotoxicity, CellTiter Glo. The experiment is classed as cell-based, human. The following applies: 3 days of treatment, read-out: IC50 (50% reduction in cell viability). Here is the method:
The evaluation of the off-target effects of NV651 was performed by ImQuest BioSciences Inc. (Frederick, MD, USA) by analyzing the cytotoxicity in a panel of primary cells. NV651 was evaluated at a concentration of 30 µM and five serial half-logarithmic dilutions in triplicate. The positive control compounds for each cell type were purchased from Sigma-Aldrich (St. Louis, MO, USA) and were as follows: Unstimulated human peripheral blood mononuclear cells (PBMCs), phytohemagglutinin (PHA)-stimulated PBMCs, monocytes/macrophages, dendritic cells, hepatocytes, induced pluripotent stem cell (iPS) neurons: […] AZT, kidney cells (RPTEC): cisplatin and iPS cardiomyocytes: Doxazosin. Human primary renal proximal tubule cells (hRPTEC, Lonza, Basel, Switzerland) were cultured at 1 × 10^4 cells/well in supplemented REGM medium (Lonza, Basel, Switzerland). Following overnight incubation for adherence, cells were treated with NV651 in triplicate. After a 3-day treatment, CellTiter Glo (Promega, Madison, WI, USA) was used. CellTiter Glo was performed to evaluate cell viability. CellTiter Glo Luminescent Cell Viability Assay (Promega, Madison, WI, USA) was performed according to the manufacturer’s instructions.

For the next experiment, the system named is iPS cardiomyocytes. Briefly: Cytotoxicity, CellTiter Glo. The experiment is classed as cell-based. To be noted: Homo sapiens, Cardiomyocyte, 72 h, 3 days of treatment, read-out: IC50 (50% reduction in cell viability). Here is the method:
The evaluation of the off-target effects of NV651 was performed by ImQuest BioSciences Inc. (Frederick, MD, USA) by analyzing the cytotoxicity in a panel of primary cells. NV651 was evaluated at a concentration of 30 µM and five serial half-logarithmic dilutions in triplicate. The positive control compounds for each cell type were purchased from Sigma-Aldrich (St. Louis, MO, USA) and were as follows: Unstimulated human peripheral blood mononuclear cells (PBMCs), phytohemagglutinin (PHA)-stimulated PBMCs, monocytes/macrophages, dendritic cells, hepatocytes, induced pluripotent stem cell (iPS) neurons: […] AZT, kidney cells (RPTEC): cisplatin and iPS cardiomyocytes: Doxazosin. iPS cardiomyocytes (Cellular Dynamics, Madison, WI, USA) were seeded in a 96-well plate precoated with 0.1% gelatin (Sigma-Aldrich, St. Louis, MO, USA) in a plating medium (Cellular dynamics, Madison, WI, USA) at a concentration of 1.5 × 10^4 cells/well. After 48 h of incubation, cells were washed, and NV651 diluted in the maintenance medium (Cellular Dynamics, Madison, WI, USA) was added. After 3 days of incubation, cell viability was measured with CellTiter Glo (Promega, Madison, WI, USA). CellTiter Glo was performed to evaluate cell viability. CellTiter Glo Luminescent Cell Viability Assay (Promega, Madison, WI, USA) was performed according to the manufacturer’s instructions.

SMILES strings stand for the structures.

Sequence of CypB (P23284 34-216): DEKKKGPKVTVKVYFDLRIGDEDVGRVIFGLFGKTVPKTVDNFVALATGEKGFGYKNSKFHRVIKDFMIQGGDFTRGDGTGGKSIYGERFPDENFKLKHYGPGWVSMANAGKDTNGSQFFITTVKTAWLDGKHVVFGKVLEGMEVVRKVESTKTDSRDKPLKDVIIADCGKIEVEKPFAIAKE
Sequence of Cyp40 (Q08752 whole entry): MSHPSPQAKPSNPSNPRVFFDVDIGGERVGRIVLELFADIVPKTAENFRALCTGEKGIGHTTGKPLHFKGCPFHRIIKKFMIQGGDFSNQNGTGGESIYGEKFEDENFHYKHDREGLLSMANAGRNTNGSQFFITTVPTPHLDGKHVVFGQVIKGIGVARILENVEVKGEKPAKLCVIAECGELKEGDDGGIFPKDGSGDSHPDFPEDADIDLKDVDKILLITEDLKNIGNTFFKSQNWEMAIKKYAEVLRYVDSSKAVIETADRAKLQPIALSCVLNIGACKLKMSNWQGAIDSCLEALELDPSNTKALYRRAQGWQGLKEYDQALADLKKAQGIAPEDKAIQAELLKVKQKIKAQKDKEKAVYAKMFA
Sequence of CypD (P30405 30-207): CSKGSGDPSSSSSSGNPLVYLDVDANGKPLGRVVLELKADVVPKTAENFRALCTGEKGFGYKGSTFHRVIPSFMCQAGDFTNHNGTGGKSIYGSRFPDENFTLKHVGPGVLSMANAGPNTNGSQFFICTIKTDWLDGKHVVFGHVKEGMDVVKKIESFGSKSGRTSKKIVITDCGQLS

Compound `Cc1cn([C@H]2C[C@H](N=[N+]=[N-])[C@@H](CO)O2)c(=O)[nH]c1=O` [AZT, reference compound] had a half-inhibitory concentration (IC50) with Bone marrow progenitors of 0.89 µM.
Regarding `CC[C@H]1C[C@H](C)[C@@]2(NC1=O)O[C@@H](C[C@H](O)[C@@H](C)CC/C=C/C=C(\C)[C@@H]1C/C=C/C=C/[C@H](O)[C@H](C)[C@@H](O)[C@@H](CCC(C)=O)C(=O)N[C@@H](C(C)C)C(=O)N[C@@H](Cc3cccc(O)c3)C(=O)N3CCC[C@H](N3)C(=O)O1)[C@H](C)[C@H](O)[C@@H]2C` [SfA, Sanglifehrin A, reference compound], the values for the IC50 against CypB, on Cyp40 and at CypD were 0.00512 µM, 0.00562 µM and 0.00525 µM, respectively.
As to `CNC(=O)c1cc(Oc2ccc(NC(=O)Nc3ccc(Cl)c(C(F)(F)F)c3)cc2)ccn1` [Sorafenib, reference compound], the IC50 with LIXC-086 stood at 1.9 µM; in the experiment on LIXC-012, 1.25 µM; in the experiment on HEPG2, 2.33 µM; in the experiment on HEP3B2.1-7-Luc, 3.9 µM; with LIXC-066, 1.65 µM; in the experiment with LIXC-003, 0.003 µM. Moreover, the figures for the half-maximal inhibitory concentration (IC50) with LIXC-006, in the experiment with HUH7 and in the experiment with LIXC-004 were 3.35 µM, 0.739 µM and 1.45 µM, respectively.
Turning to `CN[C@@H]1C[C@H]2O[C@@](C)([C@@H]1OC)n1c3ccccc3c3c4c(c5c6ccccc6n2c5c31)C(=O)NC4` [Staurosporine, reference compound], the IC50 in the experiment with Dendritic cells was determined as 0.009 µM.
Turning to `N.N.[Cl][Pt][Cl]` [cisplatin, reference compound], the IC50 in the experiment on RPTECs is 0.009 µM.
`COc1cc2nc(N3CCN(C(=O)C4COc5ccccc5O4)CC3)nc(N)c2cc1OC` (stereo not shown) [doxazosin, reference compound]: the IC50 in the experiment on iPS cardiomyocytes is 39.8 µM.

For orientation: IC50 means the concentration that gives 50% inhibition.
